Measurements: patent US20230000820A1, “SOLID DOSAGE FORM OF N-1-PYRROLIDINE-N-5-(3-TRIFLUOROMETHOXY)PHENYL BIGUANIDE AND USES THEREOF” (ImmunoMet Therapeutics, Inc., priority 2021, published 2023)
Like-named read-outs stand apart in the source and are kept apart here.

Legend:
[1] = parameters: species or system Beagle dogs; details: dog, in vivo, po
Method: (§1) Animals were dosed with N-1-pyrrolidine-N-5-(3-trifluoromethoxy)phenyl biguanide acetate salt as specified in Table 1. Dosages were freshly prepared on the day of dosing. The PO (per os) solution was DI water. The enteric capsule was HMPC enteric-coated capsules. The test substance was prepared and used immediately before administration. The preparation method was to weigh N-1-pyrrolidine-N-5-(3-trifluoromethoxy)phenyl biguanide and add sterile distilled water. The mixture was titrated to final volumes by mixing via sonication for 2 minutes and vortexing for 5 minutes. During the administration time, the preparation was handled at room temperature. All animals for IV administration had free access to food and water. Animals for PO were fasted overnight prior to dosing and were fed approximately 2 hours after dosing. Group 2 shared the same 2 animals. Animals in PO_A arm were dosed first. After 2 days washout period, animals in PO_B arm were dosed. After 2 days washout period, animals in PO_C arm were dosed. Clinical observations of animals treated with compound 1 were recorded as specified in Tables 3-5.
Plasma for both IV and PO dosing was sampled from animals pre-dose, and 5 minutes, 15 minutes, 30 minutes, 1 hour, 2 hours, 4 hours, 8 hours, and 24 hours post dose.
Samples were collected via venipuncture of peripheral veins except the dosing vein. 0.3 mL of blood was drawn per time point. The anticoagulant used was potassium EDTA. Whole blood samples were gently inverted several times to ensure anticoagulation then placed on wet ice prior to centrifugation. Within 30 minutes of collection, the samples were centrifuged at approximately 2000×g (force) for 10 minutes at 2 to 8° C. to obtain plasma. The resultant plasma samples were immediately separated divided into 2 aliquots (˜[…] each) and transferred to cryogenic vial. Samples were maintained on wet ice throughout processing and stored in a freezer at −75±15° C. prior to analysis.
The standard curve was run in duplicate with a minimum of six standards, and a minimum of five standards and the LLOQ should fall within ±20% of the nominal value. Verapamil and dexamethasone were normally used as internal standards. […] A minimum of duplicate QC's at three concentrations (low, mid, and high QC) were incorporated into each run with the low QC no more than 3×LLOQ, the mid QC around the middle of the curve, and the high QC should be near the ULOQ (minimally 80% but less than 100% of the value of the highest standard) for the run and the mean value should be within ±20% of the theoretical value. The results of the QC's provide the basis for accepting or rejecting the run. At least 67% or four of six QC's should be within 20% of their respective nominal values; 33% of the QC's (not replicates of the same concentration) can fall outside 20% of nominal value. The simplest model that adequately describes the concentration-response relationship should be used. Linear or quadratic regression can be used. Weighting was 1/x or 1/x2.
Concentrations of Test Article in the plasma samples were analyzed using a LC-MS/MS method. WinNonlin (Phoenix™, version 6.1) or other similar software will be used for pharmacokinetic calculations. The following pharmacokinetic parameters were be calculated, whenever possible from the plasma concentration versus time data: PO administration: T1/2, Cmax, Tmax, MRTinf, AUCinf, AUClast, F%, Number of Points for Regression (FIG. 1). […]

[2] = test system: Beagle dogs; experiment: Clinical Observation/Cageside Observation of dogs treated with compound 1 (Example 1); assay type: in vivo
Method: as §1

[3] = test system: human subjects; details: in vivo
Method: A phase 1 clinical study investigating the safety and tolerability of compound 1 in human subjects was conducted. Healthy volunteers were administered either an uncoated tablet at 100 mg QD (cohort 1, N=6), 200 mg QD (cohort 2, N=6), or 400 mg QD (cohort 3, N=6), or a coated tablet at 400 mg (cohort 4, N=6) or 800 mg QD (cohort 5, N=6), and the compound 1 plasma concentration achieved by the subjects was recorded over time (FIGS. 2 and 4). Cancer patients were administered either an uncoated tablet at 100 mg QOD (cohort 1, N=3), 200 mg QOD (cohort 2, N=3), 400 mg QOD (cohort 3, N=3), 800 mg QOD (cohort 4, N=3), or 1200 mg QOD (cohort 5, N=3), or were administered an uncoated tablet at 800 mg QD (cohort 6, N=3) or 1200 mg QD (cohort 7, N=4), and the compound 1 plasma concentration achieved by the subjects was recorded over time (FIGS. 3 and 4).

[4] = test system: human subjects; details: in vivo; remark: listed apart in the source
Method: A phase 1 clinical study investigating the safety and tolerability of compound 1 in human subjects was conducted. Healthy volunteers were administered either an uncoated tablet at 100 mg QD (cohort 1, N=6), 200 mg QD (cohort 2, N=6), or 400 mg QD (cohort 3, N=6), or a coated tablet at 400 mg (cohort 4, N=6) or 800 mg QD (cohort 5, N=6), and the compound 1 plasma concentration achieved by the subjects was recorded over time (FIGS. 2 and 4). Cancer patients were administered either an uncoated tablet at 100 mg QOD (cohort 1, N=3), 200 mg QOD (cohort 2, N=3), 400 mg QOD (cohort 3, N=3), 800 mg QOD (cohort 4, N=3), or 1200 mg QOD (cohort 5, N=3), or were administered an uncoated tablet at 800 mg QD (cohort 6, N=3) or 1200 mg QD (cohort 7, N=4), and the compound 1 plasma concentration achieved by the subjects was recorded over time (FIGS. 3 and 4). A phase 1 clinical study investigating the safety and tolerability of compound 1 in human subjects was conducted. 22 subjects with solid tumors were enrolled and split into seven cohorts. Cohort 1 received 100 mg QOD, cohort 2 received 200 mg QOD, cohort 3 received 400 mg QOD, cohort 4 received 800 mg QOD, cohort 5 received […], cohort 6 received 800 mg QD, and cohort 7 received 1,200 mg QD.

N=C(NC(=N)N1CCCC1)Nc1cccc(OC(F)(F)F)c1 [compound 1, N-1-pyrrolidine-N-5-(3-trifluoromethoxy)phenyl biguanide]
Notes: AUC [1]: Improved AUC
Notes: Bioavailability [1]: Improved
Notes: PK [1]: no difference in PK
AUCInf ([1]; 100 mg/kg): 10750 ng·h/mL
T1/2 ([1]; 100 mg/kg): 6.65 h
Notes: tolerability ([2]; PO A, HPMC Enteric Coating Capsule, vs Initial Formulation and Dosing (PO B)): Improved
Notes: tolerability ([2]; PO C, Zofran given prior to compound 1 dosing): no difference
Loose feces observed, timepoint ([2]; dog, in vivo): d. Loose feces was observed from POC-4(8319440) at 8 h timepoint
Comment present ([2]; dog, in vivo, 100 mg/kg): No
Discoloration ([2]; dog, in vivo, 100 mg/kg): No
Dyspnea (labored breathing) ([2]; dog, in vivo, 100 mg/kg): No
Emesis observed, timepoint ([2]; dog, in vivo, 100 mg/kg): c. “Loose feces” and “emesis” were observed from POA-4(8319440) at 4 h timepoint
Feces with abnormal content ([2]; dog, in vivo, 100 mg/kg): No
Few feces ([2]; dog, in vivo, 100 mg/kg): No
Frothy ([2]; dog, in vivo, 100 mg/kg): No
Loose feces ([2]; dog, in vivo, 100 mg/kg): Yes(f)
Reduced food intake ([2]; dog, in vivo, 100 mg/kg): No
Soft Stool ([2]; dog, in vivo, 100 mg/kg): No
Soft stool observed, timepoint ([2]; dog, in vivo, 100 mg/kg): f. Soft stool was observed from POA-3(8310744) and POA-4(8319440) at 24 h timepoint
Some broken capsule found in the loose feces, timepoint ([2]; dog, in vivo, 100 mg/kg): b. Some broken capsule was found in the loose feces at 30 min timepoint from POA-3
Temperature Drop ([2]; dog, in vivo, 100 mg/kg): No
Temperature Rise ([2]; dog, in vivo, 100 mg/kg): No
Torpidity ([2]; dog, in vivo, 100 mg/kg): No
Tremor (slight) ([2]; dog, in vivo, 100 mg/kg): No
Uncoordinated movement ([2]; dog, in vivo, 100 mg/kg): No
Weight drop ([2]; dog, in vivo, 100 mg/kg): No
Comment present ([2]; dog, in vivo, iv, 10 mg/kg): No
Diarrhea ([2]; dog, in vivo, iv, 10 mg/kg): No
Discoloration ([2]; dog, in vivo, iv, 10 mg/kg): No
Dyspnea (labored breathing) ([2]; dog, in vivo, iv, 10 mg/kg): No
Feces with abnormal content ([2]; dog, in vivo, iv, 10 mg/kg): No
Few feces ([2]; dog, in vivo, iv, 10 mg/kg): No
Frothy ([2]; dog, in vivo, iv, 10 mg/kg): No
Loose feces ([2]; dog, in vivo, iv, 10 mg/kg): No
Reduced food intake ([2]; dog, in vivo, iv, 10 mg/kg): No
Soft Stool ([2]; dog, in vivo, iv, 10 mg/kg): No
Temperature Drop ([2]; dog, in vivo, iv, 10 mg/kg): No
Temperature Rise ([2]; dog, in vivo, iv, 10 mg/kg): No
Torpidity ([2]; dog, in vivo, iv, 10 mg/kg): No
Tremor (slight) ([2]; dog, in vivo, iv, 10 mg/kg): No
Uncoordinated movement ([2]; dog, in vivo, iv, 10 mg/kg): No
Weight drop ([2]; dog, in vivo, iv, 10 mg/kg): No
Gastrointestinal adverse events [3]: Low-grade gastrointestinal adverse events were prominent
Adverse events reported, character [4]: primarily GI, low-grade, monitorable, manageable, and reversible
Dose limiting toxicities [4]: no dose limiting toxicities
Dose suggested as suitable for phase 2 studies [4]: 800 mg QD
Gastrointestinal adverse events [4]: Low-grade gastrointestinal adverse events were prominent
